According to ChEMBL document CHEMBL1122324, “New antihypertensive cannabinoids” (1983):

Tests used:
Settings in all cases: route oral
Rattus norvegicus [1] = assay: percentage decrease in heart rate after 24 hr at a dose of 30 mg/kg administered perorally in rats; assay type: functional
Rattus norvegicus [2] = assay: percentage decrease in heart rate after 4 hr at a dose of 100 mg/kg administered perorally in rats; assay type: functional
Rattus norvegicus [3] = assay: percentage decrease in heart rate after 4 hr at a dose of 300 mg/kg administered perorally in rats; assay type: functional
Rattus norvegicus [4] = assay: percentage decrease in heart rate after 6 hr at a dose of 30 mg/kg administered perorally in rats; assay type: functional
Rattus norvegicus [5] = assay: percentage decrease in heart rate after 1 hr at a dose of 30 mg/kg administered perorally in rats; assay type: functional
Rattus norvegicus [6] = assay: Percentage decrease in systolic blood pressure after 6 hr at 30 mg/kg administered perorally in rats; assay type: functional, Artery
Rattus norvegicus [7] = assay: Percentage decrease in systolic blood pressure after 1 hr at 30 mg/kg administered perorally in rats; assay type: functional, Artery
Rattus norvegicus [8] = assay: Percentage decrease in systolic blood pressure after 24 hr at 30 mg/kg administered perorally in rats; assay type: functional, Artery
Rattus norvegicus [9] = assay: Percentage decrease in systolic blood pressure after 4 hr at 30 mg/kg administered perorally in rats; assay type: functional, Artery
Rattus norvegicus [10] = assay: Percentage decrease in systolic blood pressure after 4 hr at 300 mg/kg administered perorally in rats; assay type: functional, Artery
Rattus norvegicus [11] = assay: Percentage decrease in systolic blood pressure after 4 hr at 100 mg/kg administered perorally in rats; assay type: functional, Artery
Rattus norvegicus [12] = assay: percentage decrease in heart rate after 4 hr at a dose of 30 mg/kg administered perorally in rats; assay type: functional
Rattus norvegicus [13] = assay: Percentage decrease in systolic blood pressure (heart rate) after 4 hr at 100 mg/kg administered perorally in rats; assay type: functional, Artery
Rattus norvegicus [14] = assay: Percentage decrease in systolic blood pressure (heart rate) after 4 hr at 30 mg/kg administered perorally in rats; assay type: functional, Artery
Rattus norvegicus [15] = assay: percentage decrease in heart rate after 24 hr at a dose of 30 mg/kg administered perorally in rats.; assay type: functional
Rattus norvegicus [16] = assay: percentage decrease in heart rate after 4 hr at a dose of 10 mg/kg administered perorally in rats.; assay type: functional
Rattus norvegicus [17] = assay: percentage decrease in heart rate after 4 hr at a dose of 30 mg/kg administered perorally in rats.; assay type: functional
Rattus norvegicus [18] = assay: percentage decrease in heart rate after 6 hr at a dose of 10 mg/kg administered perorally in rats.; assay type: functional
Rattus norvegicus [19] = assay: percentage decrease in heart rate after 6 hr at a dose of 30 mg/kg administered perorally in rats.; assay type: functional
Rattus norvegicus [20] = assay: percentage decrease in heart rate after 1 hr at a dose of 10 mg/kg administered perorally in rats.; assay type: functional
Rattus norvegicus [21] = assay: percentage decrease in heart rate after 1 hr at a dose of 30 mg/kg administered perorally in rats.; assay type: functional
Rattus norvegicus [22] = assay: percentage decrease in heart rate after 24 hr at a dose of 10 mg/kg administered perorally in rats.; assay type: functional
Rattus norvegicus [23] = assay: Percentage decrease in systolic blood pressure after 1 hr at 10 mg/kg administered perorally in rats; assay type: functional, Artery
Rattus norvegicus [24] = assay: Percentage decrease in systolic blood pressure after 24 hr at 10 mg/kg administered perorally in rats; assay type: functional, Artery
Rattus norvegicus [25] = assay: Percentage decrease in systolic blood pressure after 4 hr at 10 mg/kg administered perorally in rats; assay type: functional, Artery
Rattus norvegicus [26] = assay: Percentage decrease in systolic blood pressure after 6 hr at 10 mg/kg administered perorally in rats; assay type: functional, Artery
Rattus norvegicus [27] = assay: Percentage decrease in systolic blood pressure after 24 hr at 3 mg/kg administered perorally in rats; assay type: functional, Artery
Rattus norvegicus [28] = assay: Percentage decrease in systolic blood pressure after 4 hr at 3 mg/kg administered perorally in rats; assay type: functional, Artery

SMILES: CCCCCC(C)C(C)c1cc(O)c2c(c1)OC(C)(C)C1CCN(C(=O)CN3CCOCC3)C=C21 (stereo not drawn)
- Heart rate (Rattus norvegicus [1]): 14%
- Heart rate (Rattus norvegicus [2]): 5%
- Heart rate (Rattus norvegicus [3]): 9%
- Heart rate (Rattus norvegicus [4]): 0%
- Heart rate (Rattus norvegicus [5]): -16%
- Decrease in Systolic blood pressure (Rattus norvegicus [6]): -1%
- Decrease in Systolic blood pressure (Rattus norvegicus [7]): -8%
- Decrease in Systolic blood pressure (Rattus norvegicus [8]): -6%
- Decrease in Systolic blood pressure (Rattus norvegicus [9]): -5%
- Decrease in Systolic blood pressure (Rattus norvegicus [10]): 26%
- Decrease in Systolic blood pressure (Rattus norvegicus [11]): 23%
- Heart rate (Rattus norvegicus [12]): 6%

SMILES: CC(CCCc1ccc(F)cc1)c1cc(O)c2c(c1)OC(C)(C)C1=C2CN(C(=O)CO)CC1 (stereo not drawn)
- Heart rate (Rattus norvegicus [2]): 19%
- Decrease in Systolic blood pressure (Rattus norvegicus [13]): 8%
- Decrease in Systolic blood pressure (Rattus norvegicus [14]): 10%
- Heart rate (Rattus norvegicus [12]): 30%

SMILES: CCCCCC(C)C(C)c1cc(O)c2c(c1)OC(C)(C)C1=C2CN(C(=O)CN2CCOCC2)CC1 (stereo not drawn)
- Heart rate (Rattus norvegicus [15]): 0%
- Heart rate (Rattus norvegicus [2]): 37%
- Heart rate (Rattus norvegicus [16]): 7%
- Heart rate (Rattus norvegicus [17]): 16%
- Heart rate (Rattus norvegicus [18]): 11%
- Heart rate (Rattus norvegicus [19]): 20%
- Heart rate (Rattus norvegicus [20]): -21%
- Heart rate (Rattus norvegicus [21]): -2%
- Heart rate (Rattus norvegicus [22]): 8%
- Decrease in Systolic blood pressure (Rattus norvegicus [6]): 27%
- Decrease in Systolic blood pressure (Rattus norvegicus [7]): 10%
- Decrease in Systolic blood pressure (Rattus norvegicus [23]): 4%
- Decrease in Systolic blood pressure (Rattus norvegicus [24]): 2%
- Decrease in Systolic blood pressure (Rattus norvegicus [25]): 8%
- Decrease in Systolic blood pressure (Rattus norvegicus [8]): 10%
- Decrease in Systolic blood pressure (Rattus norvegicus [9]): 18%
- Decrease in Systolic blood pressure (Rattus norvegicus [26]): 3%
- Decrease in Systolic blood pressure (Rattus norvegicus [11]): 40%

SMILES: C#CCN1CCC2=C(C1)c1c(O)cc(C(C)C(C)CCCCC)cc1OC2(C)C (stereo not drawn)
- Decrease in Systolic blood pressure (Rattus norvegicus [24]): 27%
- Decrease in Systolic blood pressure (Rattus norvegicus [27]): 4%
- Decrease in Systolic blood pressure (Rattus norvegicus [25]): 23%
- Decrease in Systolic blood pressure (Rattus norvegicus [28]): 7%
